Assay results taken from publication doi:10.1101/2024.12.16.628070v1 (bioRxiv, 2024).
Converted amounts (≈) assume the structure as drawn. Where two headings read alike, the source gives them in different places. Where no end group is shown, it is not given here.

Key:
[1] = system: Salmonella typhimurium; assay: MIC, broth microdilution; format: cell-based; conditions: strain ATCC 14028
[2] = system: Acinetobacter baumannii; assay: MIC, broth microdilution; format: cell-based
[3] = system: E. coli M6; format: cell-based, Escherichia coli
[4] = biological target: BAM complex (Escherichia coli, UniProt P0A940); assay: Differential Scanning Fluorimetry of BAM complex in nanodiscs; format: binding; conditions: read-out: increase in melting temperature (Tm)
[5] = system: Salmonella entereditis; assay: MIC, broth microdilution; format: cell-based; conditions: strain ATCC 13076
[6] = system: Staphylococcus aureus; assay: MIC, broth microdilution; format: cell-based
[7] = biological target: BamA-β (transmembrane β-barrel domain of BamA) (Escherichia coli, UniProt P0A940, C690S/C700S); assay: Surface Plasmon Resonance affinity to BamA-β in LDAO micelles; format: binding
[8] = system: Shigella flexneri; assay: MIC, broth microdilution; format: cell-based; conditions: strain M90T
[9] = system: Morganella morganii; assay: MIC, broth microdilution; format: cell-based
[10] = system: Pseudomonas aeruginosa; assay: MIC, broth microdilution; format: cell-based
[11] = system: Escherichia coli; format: cell-based
[12] = system: Klebsiella pneumoniae; assay: MIC, broth microdilution; format: cell-based
[13] = system: Bacillus cereus; assay: MIC, broth microdilution; format: cell-based; conditions: strain ATCC 11778
[14] = system: Bacillus subtilis; assay: MIC, broth microdilution; format: cell-based; conditions: strain ATCC 6633
[15] = Single-dose pharmacokinetic study; format: in vivo; conditions: mouse, blood, ip, 50 mg/kg
[16] = system: Enterobacter cloacae; assay: MIC, broth microdilution; format: cell-based
[17] = system: Enterococcus faecalis; assay: MIC, broth microdilution; format: cell-based; conditions: strain ATCC 29212
[18] = K12 MG1655 BamA F394V, E435K, G443D
[19] = strain ATCC 25922 (WT), broth microdilution, MHB, 18-20 h, 37 °C

## CC(C)[C@@H]1NC(=O)[C@@H](N)Cc2c[nH]c3cc(ccc23)C(C(N)=O)[C@@H](C(=O)N[C@@H](C)C(=O)N[C@H]2Cc3cccc(c3)C(CCNC(=N)N)[C@@H](C(=O)N[C@H]3Cc4c[nH]c5cc(ccc45)C(CCCN)[C@@H](C(=O)N[C@@H](CO)C(=O)N[C@@H](Cc4ccccc4)C(=O)O)NC(=O)[C@H](CO)NC3=O)NC(=O)[C@H](C)NC2=O)NC1=O (stereo partly shown) [Compound 2, xenorceptide A2]
[1]
  MIC: 8 µg/mL (≈ 5.36 µM)
[2]; strain ACBA1001
  MIC: 32 µg/mL (≈ 21.4 µM)
[2]; strain ACBA1002
  MIC: 32 µg/mL (≈ 21.4 µM)
[2]; strain ACBA1003
  MIC: 32 µg/mL (≈ 21.4 µM)
[2]; strain ACBA1004
  MIC: 64 µg/mL (≈ 42.9 µM)
[2]; strain ATCC 19606
  MIC: >64 µg/mL
[3]; after 5-7 days of passage
  MIC after resistance development in serial passage: 32 µg/mL (≈ 21.4 µM)
[4]
  ΔTm at 20 µM: 3.8 °C
[5]
  MIC: 8 µg/mL (≈ 5.36 µM)
[6]; strain ATCC 29737
  MIC: >64 µg/mL
[6]; strain ATCC 43300
  MIC: >64 µg/mL
[7]; KD, steady state response, SPR, BamA-β, concentration range 0.019 µM to 20 µM
  Kd: ~800 nM
[7]; read-out: kd (dissociation rate)
  koff: 0.0673 s⁻¹
[8]
  MIC: 2 µg/mL (≈ 1.34 µM)
[9]; strain ATCC 25830
  MIC: 32 µg/mL (≈ 21.4 µM)
[9]; strain CRE1001
  MIC: 32 µg/mL (≈ 21.4 µM)
[10]; strain ATCC 9027
  MIC: 64 µg/mL (≈ 42.9 µM)
[10]; strain DM4150R
  MIC: 64 µg/mL (≈ 42.9 µM)
[10]; strain DM23376
  MIC: >64 µg/mL
[10]; strain DR4877/07
  MIC: 64 µg/mL (≈ 42.9 µM)
[10]; strain DR5790/07
  MIC: 64 µg/mL (≈ 42.9 µM)
[11]; [18]
  MIC: 8 µg/mL (≈ 5.36 µM)
[11]; K12 MG1655 BamA G429V, G807V
  MIC: 8 µg/mL (≈ 5.36 µM)
[11]; MG1655 bamA G429C, generated in the present study
  MIC: 32 µg/mL (≈ 21.4 µM)
[11]; strain 1 (darobactin-resistant MG1655 strain previously reported)
  MIC: 8 µg/mL (≈ 5.36 µM)
[11]; strain 2 (darobactin-resistant MG1655 strain previously reported)
  MIC: 8 µg/mL (≈ 5.36 µM)
[11]; [19]
  MIC: 2 µg/mL (≈ 1.34 µM)
[11]; strain CRE1006, broth microdilution, MHB, 18-20 h, 37 °C
  MIC: 4 µg/mL (≈ 2.68 µM)
[11]; strain K12 MG1655 (WT)
  MIC: 2 µg/mL (≈ 1.34 µM)
[11]; strain M2, broth microdilution, MHB, 18-20 h, 37 °C, repeated three times
  MIC: 16 µg/mL (≈ 10.7 µM)
[11]; strain M6, broth microdilution, MHB, 18-20 h, 37 °C
  MIC: 8 µg/mL (≈ 5.36 µM)
[11]; strain M10, broth microdilution, MHB, 18-20 h, 37 °C
  MIC: 4 µg/mL (≈ 2.68 µM)
[11]; strain M11, broth microdilution, MHB, 18-20 h, 37 °C
  MIC: 4 µg/mL (≈ 2.68 µM)
[12]; strain ATCC 700603
  MIC: 8 µg/mL (≈ 5.36 µM)
[12]; strain CRE1007
  MIC: 8 µg/mL (≈ 5.36 µM)
[12]; strain CRE1008
  MIC: 8 µg/mL (≈ 5.36 µM)
[12]; strain CRE1011
  MIC: 8 µg/mL (≈ 5.36 µM)
[12]; strain CRE1012
  MIC: 8 µg/mL (≈ 5.36 µM)
[12]; strain M7
  MIC: 64 µg/mL (≈ 42.9 µM)
[13]
  MIC: >64 µg/mL
[14]
  MIC: >64 µg/mL
[15]
  Tmax: 2 h
[15]; SD
  Cmax: 60.7 µg/mL
  half-life: 2.4 h
[16]; strain CRE1010
  MIC: 4 µg/mL (≈ 2.68 µM)
[16]; strain CRE1014
  MIC: 16 µg/mL (≈ 10.7 µM)
[16]; strain CRE1015
  MIC: 32 µg/mL (≈ 21.4 µM)
[16]; strain CRE1016
  MIC: 16 µg/mL (≈ 10.7 µM)
[16]; strain CRE1017
  MIC: 32 µg/mL (≈ 21.4 µM)

## WINAFANWTKRI (also: bicyclic or more (positions not given here)) [Compound 3, xenorceptide A3]
[2]; strain ATCC 19606
  MIC: >64 µg/mL
[6]; strain ATCC 29737
  MIC: >64 µg/mL
[9]; strain ATCC 25830
  MIC: 64 µg/mL
[10]; strain ATCC 9027
  MIC: 64 µg/mL
[11]; [19]
  MIC: 8 µg/mL
[12]; strain ATCC 700603
  MIC: 8 µg/mL
[14]
  MIC: >64 µg/mL

## WINAFGNWTKSF (also: bicyclic or more (positions not given here)) [Compound 16, xenorceptide A16]
[17]
  MIC: >64 µg/mL
[2]; strain ATCC 19606
  MIC: >64 µg/mL
[6]; strain ATCC 29737
  MIC: >64 µg/mL
[11]; [19]
  MIC: >64 µg/mL
[12]; strain ATCC 700603
  MIC: >64 µg/mL
[16]; strain ATCC 13047
  MIC: >64 µg/mL

## WVNAFAKWTKRI (also: bicyclic or more (positions not given here)) [Compound 11, xenorceptide A11]
[17]
  MIC: >64 µg/mL
[2]; strain ATCC 19606
  MIC: >64 µg/mL
[6]; strain ATCC 29737
  MIC: >64 µg/mL
[11]; [19]
  MIC: 4 µg/mL
[12]; strain ATCC 700603
  MIC: 8 µg/mL
[16]; strain ATCC 13047
  MIC: 8 µg/mL

## WVNAFANWPKRF (also: bicyclic or more (positions not given here)) [Compound 13, xenorceptide A13]
[17]
  MIC: >64 µg/mL
[2]; strain ATCC 19606
  MIC: >64 µg/mL
[6]; strain ATCC 29737
  MIC: >64 µg/mL
[11]; [19]
  MIC: 8 µg/mL
[12]; strain ATCC 700603
  MIC: 32 µg/mL
[16]; strain ATCC 13047
  MIC: >64 µg/mL

## WVNAFANWSKAL (also: bicyclic or more (positions not given here)) [Compound 15, xenorceptide A15]
[17]
  MIC: >64 µg/mL
[2]; strain ATCC 19606
  MIC: >64 µg/mL
[6]; strain ATCC 29737
  MIC: >64 µg/mL
[11]; [19]
  MIC: 64 µg/mL
[12]; strain ATCC 700603
  MIC: >64 µg/mL
[16]; strain ATCC 13047
  MIC: >64 µg/mL

## WVNAFANWSKSF (also: bicyclic or more (positions not given here)) [Compound 6, xenorceptide A6]
[2]; strain ATCC 19606
  MIC: >64 µg/mL
[6]; strain ATCC 29737
  MIC: >64 µg/mL
[10]; strain ATCC 9027
  MIC: >64 µg/mL
[11]; [19]
  MIC: 64 µg/mL
[12]; strain ATCC 700603
  MIC: >64 µg/mL

## WVNAFANWTKRF (also: bicyclic or more (positions not given here)) [Compound 8, xenorceptide A8]
[2]; strain ATCC 19606
  MIC: >64 µg/mL
[6]; strain ATCC 29737
  MIC: >64 µg/mL
[10]; strain ATCC 9027
  MIC: 64 µg/mL
[11]; [19]
  MIC: 2 µg/mL
[12]; strain ATCC 700603
  MIC: 4 µg/mL

## WVNAFARWDKKF (also: bicyclic or more (positions not given here)) [Compound 7, xenorceptide A7]
[2]; strain ATCC 19606
  MIC: >64 µg/mL
[6]; strain ATCC 29737
  MIC: >64 µg/mL
[10]; strain ATCC 9027
  MIC: >64 µg/mL
[11]; [19]
  MIC: 64 µg/mL
[12]; strain ATCC 700603
  MIC: >64 µg/mL

## WVNAFGNWSKSL (also: bicyclic or more (positions not given here)) [Compound 14, xenorceptide A14]
[17]
  MIC: >64 µg/mL
[2]; strain ATCC 19606
  MIC: >64 µg/mL
[6]; strain ATCC 29737
  MIC: >64 µg/mL
[11]; [19]
  MIC: 64 µg/mL
[12]; strain ATCC 700603
  MIC: >64 µg/mL
[16]; strain ATCC 13047
  MIC: 64 µg/mL

## WVNAFVNWPKSF (also: bicyclic or more (positions not given here)) [Compound 5, xenorceptide A5]
[2]; strain ATCC 19606
  MIC: >64 µg/mL
[6]; strain ATCC 29737
  MIC: >64 µg/mL
[10]; strain ATCC 9027
  MIC: >64 µg/mL
[11]; [19]
  MIC: 16 µg/mL
[12]; strain ATCC 700603
  MIC: 32 µg/mL

## WVNAYARWTKRF (also: bicyclic or more (positions not given here)) [Compound 12, xenorceptide A12]
[17]
  MIC: >64 µg/mL
[2]; strain ATCC 19606
  MIC: >64 µg/mL
[6]; strain ATCC 29737
  MIC: >64 µg/mL
[11]; [19]
  MIC: 4 µg/mL
[12]; strain ATCC 700603
  MIC: 16 µg/mL
[16]; strain ATCC 13047
  MIC: >64 µg/mL

## WVNAYARWTNRF (also: bicyclic or more (positions not given here)) [Compound 4, xenorceptide A4]
[2]; strain ATCC 19606
  MIC: >64 µg/mL
[6]; strain ATCC 29737
  MIC: >64 µg/mL
[9]; strain ATCC 25830
  MIC: 64 µg/mL
[10]; strain ATCC 9027
  MIC: >64 µg/mL
[11]; [19]
  MIC: 8 µg/mL
[12]; strain ATCC 700603
  MIC: 16 µg/mL
[14]
  MIC: >64 µg/mL

## colistin [reference compound]
[3]; sub-inhibitory concentrations, MHB
  time to development of resistance in serial passage: 3 days

## dynobactin A [reference compound]
[11]; [18]
  MIC: 16 µg/mL
[11]; K12 MG1655 BamA G429V, G807V
  MIC: > 128 µg/mL
[11]; [19]
  MIC: 8 µg/mL
[11]; strain K12 MG1655 (WT)
  MIC: 16 µg/mL
